Data published in the OligoGym collection.
Several values for one entry are separate records, joined by “and”; a condition that tells them apart may be missing. Equal entries are not always repeated. After the bases stand the sugars from the 5' end (letter, count) and the backbone: PS all phosphorothioate, else s phosphorothioate and o phosphodiester by linkage. Methylation of C is not given here. k = constrained ethyl (cEt); d = 2'-deoxy (DNA)

Target: MALAT1
Settings: ASO, A431, 0.005 µM

**Q.** How did the target mRNA inhibition turn out when GTCCTTTACAGAAGTC (sugars k3 d10 k3, PS) was run?
**A.** 35%

**Q.** Which target mRNA inhibition does the source give for TCTCCAATGGACATCT (sugars k3 d10 k3, PS) here?
**A.** 8%

**Q.** For TGCCACAGGAAGGCTC (sugars k3 d10 k3, PS), which target mRNA inhibition is on record?
**A.** -10%

**Q.** With GCCTTCCCGTACTTCT (sugars k3 d10 k3, PS) as the sequence, how does the target mRNA inhibition read?
**A.** 60% and 53%

**Q.** For TCCACTTGATCCCAAC (sugars k3 d10 k3, PS), which target mRNA inhibition is on record?
**A.** 47% and 56%

**Q.** With GCCTTCGGTGCCTTTA (sugars k3 d10 k3, PS) as the sequence, how does the target mRNA inhibition read?
**A.** -2%

**Q.** Which target mRNA inhibition does the source give for CTACTATTTCTCCAGG (sugars k3 d10 k3, PS) here?
**A.** 41%

**Q.** With GATAAAAGCAGCTCCA (sugars k3 d10 k3, PS) as the sequence, how does the target mRNA inhibition read?
**A.** 30%

**Q.** TTGATCCCAACTCATC (sugars k3 d10 k3, PS) was tested. Which target mRNA inhibition did it give?
**A.** 33%

**Q.** How did the target mRNA inhibition turn out when TGCAGGCAAATTAATG (sugars k3 d10 k3, PS) was run?
**A.** 11%

**Q.** How did the target mRNA inhibition turn out when CTTCACCAAATCGCAC (sugars k3 d10 k3, PS) was run?
**A.** -13%

**Q.** With CCAATACTTGTCTTAG (sugars k3 d10 k3, PS) as the sequence, how does the target mRNA inhibition read?
**A.** 64% and 52%

**Q.** For GCATACCTTAACATCT (sugars k3 d10 k3, PS), which target mRNA inhibition is on record?
**A.** 54% and 44%

**Q.** ATAGCAGCGGGATCAG (sugars k3 d10 k3, PS) was tested. Which target mRNA inhibition did it give?
**A.** 57%

**Q.** For CTGAAAACTCCCCCCC (sugars k3 d10 k3, PS), which target mRNA inhibition is on record?
**A.** -2%

**Q.** Which target mRNA inhibition does the source give for ACTGAACTGTTTAAAC (sugars k3 d10 k3, PS) here?
**A.** 6%

**Q.** With AGGTATAGTTTACCAC (sugars k3 d10 k3, PS) as the sequence, how does the target mRNA inhibition read?
**A.** -7%

**Q.** Which target mRNA inhibition does the source give for CAGGCAAATTAATGGC (sugars k3 d10 k3, PS) here?
**A.** 23%

**Q.** How did the target mRNA inhibition turn out when CGGGCTGCAGGCTGCG (sugars k3 d10 k3, PS) was run?
**A.** 14%

**Q.** TTTAAAAAGGCTCGAT (sugars k3 d10 k3, PS) was tested. Which target mRNA inhibition did it give?
**A.** 28%

**Q.** TATAGACCCCTGACTT (sugars k3 d10 k3, PS) was tested. Which target mRNA inhibition did it give?
**A.** 42%

**Q.** For AACGGGTCATCAAACA (sugars k3 d10 k3, PS), which target mRNA inhibition is on record?
**A.** -25%

**Q.** How did the target mRNA inhibition turn out when CGCAACTGAGCCCCAG (sugars k3 d10 k3, PS) was run?
**A.** 18%

**Q.** How did the target mRNA inhibition turn out when TGGTCTAGGATCCTCT (sugars k3 d10 k3, PS) was run?
**A.** -15%

**Q.** GGAAATTTTTCTACCG (sugars k3 d10 k3, PS) was tested. Which target mRNA inhibition did it give?
**A.** 8%

**Q.** Which target mRNA inhibition does the source give for AGCCACTCAAATGCCT (sugars k3 d10 k3, PS) here?
**A.** 28%

**Q.** Which target mRNA inhibition does the source give for GCCATGGAAAGCGAGT (sugars k3 d10 k3, PS) here?
**A.** 9%

**Q.** How did the target mRNA inhibition turn out when AAGCCCACCCTCTAAG (sugars k3 d10 k3, PS) was run?
**A.** 21%

**Q.** For CTTAGTAACCTATTGA (sugars k3 d10 k3, PS), which target mRNA inhibition is on record?
**A.** 34%

**Q.** How did the target mRNA inhibition turn out when AGAACCACACACTACC (sugars k3 d10 k3, PS) was run?
**A.** 23%

**Q.** With CTACCTTCATCACCAA (sugars k3 d10 k3, PS) as the sequence, how does the target mRNA inhibition read?
**A.** 2%

**Q.** How did the target mRNA inhibition turn out when CCACAACAATTTAGAG (sugars k3 d10 k3, PS) was run?
**A.** -27%

**Q.** With TGCTTACACACAACTG (sugars k3 d10 k3, PS) as the sequence, how does the target mRNA inhibition read?
**A.** 35%

**Q.** How did the target mRNA inhibition turn out when ACCCAGTGGCTCATAT (sugars k3 d10 k3, PS) was run?
**A.** 16%

**Q.** For GCCTCTATTGCCATGT (sugars k3 d10 k3, PS), which target mRNA inhibition is on record?
**A.** 30%

**Q.** Which target mRNA inhibition does the source give for CAGTTCAATACTTTCC (sugars k3 d10 k3, PS) here?
**A.** 45%

**Q.** For AACCCCAAGACCAAAC (sugars k3 d10 k3, PS), which target mRNA inhibition is on record?
**A.** 11%

**Q.** For ATCACTTTAGAGGCTT (sugars k3 d10 k3, PS), which target mRNA inhibition is on record?
**A.** 53%

**Q.** With CTAGACAGACCTAAGG (sugars k3 d10 k3, PS) as the sequence, how does the target mRNA inhibition read?
**A.** 2%

**Q.** Which target mRNA inhibition does the source give for CCGTCATGTTTTAGAA (sugars k3 d10 k3, PS) here?
**A.** 58% and 61%

**Q.** For CTGTCTAAGAGGTTAT (sugars k3 d10 k3, PS), which target mRNA inhibition is on record?
**A.** 7%

**Q.** How did the target mRNA inhibition turn out when CAGTCTACAAGTTACA (sugars k3 d10 k3, PS) was run?
**A.** 27%

**Q.** AAATCCCCTAGGGAAG (sugars k3 d10 k3, PS) was tested. Which target mRNA inhibition did it give?
**A.** -8%

**Q.** GGAATTATTATATGCT (sugars k3 d10 k3, PS) was tested. Which target mRNA inhibition did it give?
**A.** 54%

**Q.** For ATTACCCCAACTAAAC (sugars k3 d10 k3, PS), which target mRNA inhibition is on record?
**A.** 9%

**Q.** AGCTACTGGCTGCATC (sugars k3 d10 k3, PS) was tested. Which target mRNA inhibition did it give?
**A.** 20%

**Q.** How did the target mRNA inhibition turn out when AATTGCACTCGCTCCT (sugars k3 d10 k3, PS) was run?
**A.** 29%

**Q.** TAGATTCCGTAACTTT (sugars k3 d10 k3, PS) was tested. Which target mRNA inhibition did it give?
**A.** 58%

**Q.** How did the target mRNA inhibition turn out when CTGGTTATGACTCAGA (sugars k3 d10 k3, PS) was run?
**A.** 1%

**Q.** Which target mRNA inhibition does the source give for GAAAACTCCCCCCCGC (sugars k3 d10 k3, PS) here?
**A.** -4%

**Q.** CACTGTCAATTTATAG (sugars k3 d10 k3, PS) was tested. Which target mRNA inhibition did it give?
**A.** 19%

**Q.** Which target mRNA inhibition does the source give for AGTCCCTGAAGGTGTT (sugars k3 d10 k3, PS) here?
**A.** 28%

**Q.** GGAGGTATGACATATA (sugars k3 d10 k3, PS) was tested. Which target mRNA inhibition did it give?
**A.** 68% and 84%

**Q.** Which target mRNA inhibition does the source give for AAATCCCTTTACACCT (sugars k3 d10 k3, PS) here?
**A.** 23%

**Q.** For CTCCTGAGATGACTGA (sugars k3 d10 k3, PS), which target mRNA inhibition is on record?
**A.** 39%

**Q.** How did the target mRNA inhibition turn out when TAGACGGAGAACAACT (sugars k3 d10 k3, PS) was run?
**A.** 29%

**Q.** TAAATCCCTTTACACC (sugars k3 d10 k3, PS) was tested. Which target mRNA inhibition did it give?
**A.** 12%
